We go through one molecule from US20080300298A1, “Honokiol Derivates For the Treatment of Proliferative Disorders” (priority 2005, published 2008).

The subject of experiment [1] is NF-kB-regulated gene products in H1299 cells. The experiment can be described thus: Western blot of TNF-induced NF-kB-regulated gene products. It counts as cell-based, human. How it is done: (A) Honokiol inhibits COX-2, MMP-9, ICAM-1, and VEGF expression induced by TNF. H1299 cells (2×10^6/ml) were left untreated or incubated with […] honokiol for 12 h and then treated with 0.1 nM TNF for different times. Whole-cell extracts were prepared, and […] of the whole-cell lysate was analyzed by Western blotting using antibodies against VEGF, MMP-9, and COX-2. (B) Honokiol inhibits cyclin D1 and c-myc expression induced by TNF. H1299 cells (2×10^6/ml) were left untreated or incubated with […] honokiol for 12 h and then treated with 0.1 nM TNF for different times. Whole-cell extracts were prepared, and […] of the whole-cell lysate was analyzed by Western blotting using antibodies against cyclin D1 and c-myc. […] (C) Honokiol inhibits the expression of anti-apoptotic gene products cIAP1, cIAP2 Bcl-x1, Bcl-2, cFLIP, TRAF2, and survivin. H1299 cells (2×10^6/ml) were left untreated or incubated with […] honokiol for 12 h and then treated with 0.1 nM TNF for different times. Whole-cell extracts were prepared, and […] of the whole-cell lysate was analyzed by Western blotting using antibodies against IAP1, IAP2, bcl-x1, bcl-2, cFLIP, and survivin as indicated.
Western blot analysis. […] Cytoplasmic protein […] was resolved on 10% SDS-PAGE gel, transferred to a nitrocellulose membrane, blocked with 5% non-fat milk, and probed with specific antibodies against IkBa, posphorylated IkBa, p65, and phosphorylated p65. To determine the expression of cyclin D1, COX-2, MMP-9, cIAP-1, TRAF1, Bcl-2, Bfl-1, cFLIP, and survivin in whole-cell extracts of treated cells (2×10^6 cells in 2 ml of medium), […] of protein was resolved on SDS-PAGE and probed by Western blot with specific antibodies as per the manufacturer's recommended protocol. The blots were washed, exposed to HRP-conjugated secondary antibodies for 1 h, and finally detected by ECL reagent (Amersham Pharmacia Biotechnology, Piscataway, N.J.). The bands were quantified using a Personal Densitometer Scan v1.30 using Imagequant software version 3.3 (Molecular Dynamics). […]
Background: In western blotting, separated proteins are transferred to a membrane and probed.

In experiment [2] the test system is apoptosis-related proteins in MCF-7 cells. The experiment can be described thus: Western blot of apoptosis-related proteins. It counts as cell-based. Conditions: 24 h. How it is done: Following treatment, the cells were harvested and stained for PI and annexin V, as described in Example 9. (B) is a bar graph in which the results of three independent experiments (HNK 60 μM, 24 h) are shown. Asterix indicates p<0.05. (C) is a series of photographs of the Western blots in which MCF-7 cells were treated with HNK (20 or 40 μM, 24 h), lysed and analyzed by Western blotting for the expression of apoptosis-related proteins.
Western blot analysis: Cells were harvested and lysed for total protein extraction in a buffer containing 50 mM Tris-Cl pH 7.4, 150 mM NaCl and 2% NP-40 together with a protease inhibitor cocktail (Comp). […] Immunoactivity was detected with horseradish peroxidase-conjugated secondary antibody and visualized by Enhanced Chemiluminescence (Pierce, Rockford, Ill.). Quantification of the results was performed using AlphaImager 2000 (Alpha Innotech, San Leandro, Calif.).
HNK induces apoptosis in breast cancer cell lines. […] MCF-7 cells were treated with HNK (60 μM for six or 24 hours) and apoptosis and cell death were assessed using annexin V and PI staining (FIG. 5 A). […] Upregulation of BAX was also noticed, (85% increase at 40 μM compared to control, as analyzed by densitometry) but no significant changes in BCL-2 or BAD levels were observed. […]

For a further experiment, the system named is MCF-7 cells. The experiment can be described thus: Cell cycle assay (PI). Conditions: 24 hours (control 26%). It counts as cell-based. How it is done: (§1) Cell cycle assays: 5×10^6 cells were cultured in the appropriate culture media containing 10% FCS, and treated with either control vehicle or various concentrations of HNK as indicated for 24 h. Following treatment, the cells were harvested, fixed in methanol and stained with propidium iodide (PI, Abcam, Cambridge, Mass.). Flow cytometry was performed at the Flow Cytometry Core facility of Cedars-Sinai Medical Center, using FACScan (Becton Dickinson, Franklin Lakes, N.J.).
(§2) HNK slows cell cycle in breast cancer cell lines. The effects of HNK (10 μM or 30 μM HNK for 24 hours) on cell cycle were evaluated in MCF-7 and MDA-MB-231 cells. These doses of HNK are less than the LC50 for both cell lines. […] Expression of proteins involved in G1 cell-cycle regulation (massgue) was examined in MDA-MB-231 cells using Western analysis.

Another experiment concerns MDA-MB-231 cells. Nature of the experiment: Cell cycle assay (PI). It counts as cell-based. Conditions: 24 hours (control 26%). How it is done: as §1, §2
Experiment [3] relates to human promyelocytic leukemic cell line HL-60. Conditions: cited from earlier work.
The test system of another experiment is COX2 promoter. Nature of the experiment: COX-2 promoter-dependent reporter luciferase gene expression. Conditions: 0.1 nM TNF 24 h. The format is cell-based, human.

Procedure for COX2 promoter: H1299 cells were transiently transfected with a COX-2 promoter plasmid linked to the luciferase gene and then treated with the indicated concentrations of honokiol. After 24 h in culture with 0.1 nM TNF, cell supernatants were collected and assayed for luciferase activity. Results are expressed as fold activity over the activity of the vector control. Values are means ±SD (indicated as error bars) of triplicate cultures for a representative experiment out of 3 independent ones showing similar results.
COX-2 promoter-dependent reporter luciferase gene expression. COX-2 promoter activity was examined as described elsewhere (Shishodia, S., et al. 2003 Cancer Res. 63:4375-4383). To further determine the effect of honokiol on COX-2 promoter, A293 cells were seeded at a concentration of 1.5×10^5 cells per well in six-well plates. […] The COX-2 promoter (−375 to +59), which was amplified from human genomic DNA by using the primers 5′-[sequence]-3′ (sense) and 5′-[sequence]-3′ (antisense). After a 6-h exposure to the transfection mixture, the cells were incubated in medium containing honokiol for 12 h. The cells were exposed to TNF (0.1 nM) for 24 h and then harvested. Luciferase activity was measured by using the Luclite luciferase assay system (Perkin-Elmer, Boston, Mass.) according to the manufacturer's protocol and detected by luminometer (Victor 3, Perkin-Elmer).

Turning to `C=CCc1ccc(O)c(-c2ccc(O)c(CC=C)c2)c1` [HNK, Honokiol], in experiment [1] (H1299), the “TNF-induced expression of VEGF, COX-2, ICAM-1 and MMP-9” value is given as “abolished the expression”. Further, the “TNF-induced expression of cyclin D1 and c-myc” value in experiment [1] (H1299) is “abolished, in a time-dependent fashion, the TNF-induced expression of cyclin D1 and c-myc”. In addition, the “TNF-induced expression of anti-apoptotic gene products” value in experiment [1] (cIAP1, cIAP-2, BCl-2, Bcl-xL, cFLIP, TRAF1, and survivin) is reported as “inhibited the TNF-induced expression of all of these proteins”. The “Upregulation of BAX (densitometry), increase compared to control” value in experiment [2] (MCF-7, 40 μM) worked out at 85%. The “PARP and caspase 8 levels” value in experiment [2] (MCF-7, 20 or 40 μM) was “degradation of poly (ADP-ribose) polymerase (PARP) and decreased levels of caspase 8”. The “cells in S-phase” value in the experiment with MCF-7 cells (MCF-7, 10 μM) is reported as 20%; in the experiment with MCF-7 cells (MCF-7, 30 μM), 20%; in the experiment on MDA-MB-231 cells (MDA-MB-231, 10 μM) it was 15%; with MDA-MB-231 cells (MDA-MB-231, 30 μM), 10%. For the same molecule, in experiment [3], the IC50 value entry is given as “less than 100 ng/ml”. The “TNF-induced COX2 promoter activity” value in the experiment on COX2 promoter was “inhibited the TNF-induced COX2 promoter activity in a dose-dependent manner”.
